Assay results published in US6525059B1, “Substituted pyrazoles as p38 kinase inhibitors” (G. D. Searle & Company, priority 1998, dated 2003).
Structures can show the parent of a compound that is named as a salt. Where two headings read alike, the source gives them in different places.

How the values were obtained:
human TNF = assay: TNF inhibition: human whole blood assay; type: cell-based; conditions: for IC50: Homo sapiens; for inhibition at 5 µM: read-out: Human Whole Blood % Inhib @ conc.
Protocol: Human peripheral blood is obtained in heparinized tubes. A 190 μL aliquot of blood is placed in each well of a 96 well u-bottom plate. […] After one hour of incubation at 37° C., […] of lipopolysaccharide (Salmonella typhosa, Sigma) in phosphate buffered saline is added resulting in a final concentration of […]. After four to five hours of incubation at 37° C., the supernatants are harvested and assayed at 1:10 or 1:20 dilutions for human TNF using ELISA.

TNF-α = assay: Rat assay: LPS-challenged rats, serum TNF-α by ELISA; type: in vivo
Protocol: The efficacy of the novel compounds in blocking the production of TNF also was evaluated using a model based on rats challenged with LPS. Male Harlen Lewis rats [Sprague Dawley Co.] were used in this model. Each rat weighed approximately 300 g and was fasted overnight prior to testing. Compounds administration was typically by oral gavage (although intraperitoneal, subcutaneous and intravenous administration were also used in a few instances) 1 to 24 hours prior to the LPS challenge. Rats were administered 30 μg/kg LPS [salmonella typhosa, Sigma Co.] intravenously via the tail vein. Blood was collected via heart puncture 1 hour after the LPS challenge. Serum samples were stored at −20° C. until quantitative analysis of TNF-α by Enzyme Linked-Immuno-Sorbent Assay (“ELISA”) [Biosource]. Additional details of the assay are set forth in Perretti, M., et al., Br. J. Pharmacol. (1993), 110, 868-874, which is incorporated by reference in this application.
In vivo assessment of the ability of the compounds to inhibit LPS-stimulated TNF release in the rat is shown in the column identified as:
wherein in the dose is milligram per kilogram (mpk) administered by oral gavage and the predose time indicates the number of hours before LPS challenge when the compound is administered.

human p38 kinase alpha = target: T1, human p38 kinase alpha (Homo sapiens, UniProt Q16539); assay: p38 kinase in vitro assay, phosphorylation of biotinylated PHAS-I with gamma 32P-ATP; type: biochemical; conditions: read-out: P38 alpha kinase IC50
T1 construct: The coding region of the human p38a cDNA was obtained by PCR-amplification from RNA isolated from the human monocyte cell line THP.1; GST (N); made in house; host or cells: E. coli DH10B
T1 sequence (Q16539 whole entry): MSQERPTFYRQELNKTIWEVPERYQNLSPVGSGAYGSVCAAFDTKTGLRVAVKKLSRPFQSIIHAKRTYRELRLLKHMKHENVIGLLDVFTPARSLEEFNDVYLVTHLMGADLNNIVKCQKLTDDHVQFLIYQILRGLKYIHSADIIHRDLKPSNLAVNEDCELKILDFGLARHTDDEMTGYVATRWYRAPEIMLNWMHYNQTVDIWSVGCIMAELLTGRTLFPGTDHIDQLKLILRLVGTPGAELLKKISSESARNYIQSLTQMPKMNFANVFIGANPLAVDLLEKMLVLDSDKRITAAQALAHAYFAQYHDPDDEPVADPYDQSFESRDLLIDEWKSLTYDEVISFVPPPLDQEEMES
Procedure, shortened: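 MKK6-activated human p38α phosphorylates biotinylated PHAS-I with γ-32P-ATP in 25 mM HEPES pH 7.5, 10 mM Mg acetate, 50 μM unlabeled ATP, 1% DMSO, 30 °C for 1 h or overnight. Compounds at 100–0.001 μM (10-fold steps, triplicate); substrate captured on streptavidin filter plates and counted by scintillation.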

[1] = Table 8, human whole blood, LPS, read-out: TNF Inhibition-Human Whole Blood Assay
[2] = Table 9, human whole blood, LPS, read-out: TNF Inhibition-Human Whole Blood Assay
[3] = Rattus norvegicus, po, Table 9, dose 20 mg/kg
[4] = TNF production, LPS-stimulated human whole blood, read-out: Human Whole Blood IC50
[5] = Rattus norvegicus, po, 5 mpk oral gavage, 4 h before LPS challenge, read-out: Rat LPS Model % Inhibition @ dose @ predose time
[6] = TNF production, LPS-stimulated human whole blood

Structure (SMILES)	IC50 (human p38 kinase alpha) [nM]	IC50 (human TNF; [4]) [µM]	inhibition in vivo at 5 mg/kg (TNF-α; [5]) [%]	also measured
COC(=O)N1CCN(c2[nH]nc(-c3ccc(Cl)cc3)c2-c2ccncc2)CC1 [Example A-319, methyl 4-[5-(4-chlorophenyl)-4-(4-pyridinyl)-1H-pyrazol-3-yl]-1-piperazinecarboxylate, monohydrate]				IC50 (human TNF; [1]): > 25 µM; inhibition in vivo at 3 mg/kg (TNF-α; Rattus norvegicus, po, Table 8, dose 3.0 mg/kg, read-out: Rat LPS Assay % Inhibition): 62%
CC1CN(c2[nH]nc(-c3ccc(Cl)cc3)c2-c2ccncc2)CC(C)N1 (stereo not shown) [Example A-342, 1-[5-(4-chlorophenyl)-4-(4-pyridinyl)-1H-pyrazol-3-yl]-3,5-dimethylpiperazine]				IC50 (human TNF; [1]): 0.31 µM; inhibition in vivo at 20 mg/kg (TNF-α; Rattus norvegicus, po, Table 8, dose 20.0 mg/kg): 98%
CCN1CCC(Nc2cc(-c3c[nH]nc3-c3ccc(F)cc3)ccn2)CC1 [Example A-352, N-(1-ethyl-4-piperidinyl)-4-[3-(4-fluorophenyl)-1H-pyrazol-4-yl]-2-pyridinamine]				IC50 (human TNF; [2]): 9.8 µM; inhibition in vivo at 20 mg/kg (TNF-α; [3]): 36%
OC[C@@H](Cc1ccccc1)Nc1cc(-c2c[nH]nc2-c2ccc(F)cc2)ccn1 [Example A-361, (βR)-β-[[4-[3-(4-fluorophenyl)-1H-pyrazol-4-yl]-2-pyridinyl]amino]benzene propanol]				IC50 (human TNF; [2]): 1 µM; inhibition in vivo at 20 mg/kg (TNF-α; [3]): 9%
O[C@H]1CC[C@H](Nc2cc(-c3c[nH]nc3-c3ccc(F)cc3)ccn2)CC1 [Example A-386, trans-4-[[4-[3-(4-fluorophenyl)-1-H-pyrazol-4-yl]-2-pyridinyl]amino]cyclohexanol]				IC50 (human TNF; [2]): 0.16 µM; inhibition in vivo at 20 mg/kg (TNF-α; [3]): 91%
Clc1ccc(-c2n[nH]c(C3CCNCC3)c2-c2ccncc2)cc1 [Example C-74, 5-(4-piperidyl)-4-(4-pyridyl)-3-(4-chlorophenyl)pyrazole hydrochloride]	37	0.56	54	
CN1CCC(c2[nH]nc(-c3ccc(Cl)cc3)c2-c2ccncc2)CC1 [Example C-75]	45	0.4	71	
CC(=O)N1CCC(c2[nH]nc(-c3ccc(Cl)cc3)c2-c2ccncc2)CC1 [Example C-76]	70	3.24	66	
COCC(=O)N1CCC(c2[nH]nc(-c3ccc(Cl)cc3)c2-c2ccncc2)CC1 [Example C-77]	71	8.2	92	
CS(=O)(=O)N1CCC(c2[nH]nc(-c3ccc(Cl)cc3)c2-c2ccncc2)CC1 [Example C-78]	68	10.5	87	
COCCN1CCC(c2[nH]nc(-c3ccc(Cl)cc3)c2-c2ccncc2)CC1 [Example C-79]	45	0.52	83	
C=CCN1CCC(c2[nH]nc(-c3ccc(Cl)cc3)c2-c2ccncc2)CC1 [Example C-80]	8			inhibition at 5 µM (human TNF; [6]): 51%
C#CCN1CCC(c2[nH]nc(-c3ccc(Cl)cc3)c2-c2ccncc2)CC1 [Example C-81]	37			inhibition at 5 µM (human TNF; [6]): 40%
Clc1ccc(-c2n[nH]c(C3CCN(Cc4nccs4)CC3)c2-c2ccncc2)cc1 [Example C-82]	150	7.31		
FC(F)(F)c1ccc(-c2n[nH]c(C3CCNCC3)c2-c2ccncc2)cc1 [Example C-83]	240	1.23	25	
CN1CCC(c2[nH]nc(-c3ccc(C(F)(F)F)cc3)c2-c2ccncc2)CC1 [Example C-84, 5-(N-METHYL-4-(4-PYRIDYL)-4-(4-PYRIDYL)-3-[4-(TRIFLUOROMETHYL)PHENYL]PYRAZOLE]	48	0.88	22	
CC(C)N1CCC(c2[nH]nc(-c3ccc(C(F)(F)F)cc3)c2-c2ccncc2)CC1 [Example C-85]	570	> 25		

Structure (SMILES)	IC50 (human p38 kinase alpha) [nM]	IC50 (human TNF; [4]) [µM]	inhibition in vivo at 5 mg/kg (TNF-α; [5]) [%]	also measured
FC(F)(F)c1cccc(-c2n[nH]c(C3CCNCC3)c2-c2ccncc2)c1 [Example C-86]	7	0.19	66	
CN1CCC(c2[nH]nc(-c3cccc(C(F)(F)F)c3)c2-c2ccncc2)CC1 [Example C-87]	27	0.34		
Clc1cccc(-c2n[nH]c(C3CCNCC3)c2-c2ccncc2)c1 [Example C-88]	12	0.3	59	
CN1CCC(c2[nH]nc(-c3cccc(Cl)c3)c2-c2ccncc2)CC1 [Example C-89]	39	0.12	27	
Fc1ccc(-c2n[nH]c(C3CCCNC3)c2-c2ccncc2)cc1 (stereo not shown) [Example C-90, 5-(3-piperidyl)-4-(4-pyridyl)-3-(4-fluorophenyl)pyrazole]	37	0.48		
CN1CCCC(c2[nH]nc(-c3ccc(F)cc3)c2-c2ccncc2)C1 (stereo not shown) [Example C-91]	54	2.31	63	
N[C@H]1CC[C@@H](c2[nH]nc(-c3ccc(Cl)cc3)c2-c2ccncc2)CC1 [Example C-92, 5-cis-(4-AMINOCYCLOHEXYL)-4-(4-PYRIDYL)-3-(4-CHLOROPHENYL)PYRAZOLE]	24	0.28	66	
CC(=O)N[C@H]1CC[C@@H](c2[nH]nc(-c3ccc(Cl)cc3)c2-c2ccncc2)CC1 [Example C-95, 5- cis-[4-N-(ACETYL)AMINOCYCLOHEXYL]-4-(4-PYRIDYL)-3-(4-CHLOROPHENYL)PYRAZOLE]		3.91	32	
COCC(=O)NC1CCC(c2[nH]nc(-c3ccc(Cl)cc3)c2-c2ccncc2)CC1 (stereo not drawn) [Example C-96, 5-cis-[4-N-(METHOXYACETYL)AMINOCYCLOHEXYL]-4-(4-PYRIDYL)-3-(4-CHLOROPHENYL)PYRAZOLE]		2.1	38	
N[C@H]1CC[C@@H](c2[nH]nc(-c3ccc(C(F)(F)F)cc3)c2-c2ccncc2)CC1 [Example C-101, 5-cis-(4-AMINOCYCLOHEXYL)-4-(4-PYRIDYL)-3-[4-(TRIFLUOROMETHYL)PHENYL]PYRAZOLE]		3.71	52	
CN(C)[C@H]1CC[C@@H](c2[nH]nc(-c3ccc(C(F)(F)F)cc3)c2-c2ccncc2)CC1 [Example C-102, 5-cis-(4-N,N-DIMETHYLAMINOCYCLOHEXYL)-4-(4-PYRIDYL)-3-[4-(TRIFLUOROMETHYL)PHENYL]PYRAZOLE]		7.56	72	
CC(C)(N)C(=O)NCc1[nH]nc(-c2ccc(Cl)cc2)c1-c1ccncc1 [Example C-121]				IC50 (human TNF; read-out: Human Whole Blood IC50, μM): 15.3 µM; inhibition in vivo at 5 mg/kg (TNF-α; Rattus norvegicus, po, read-out: Rat LPS Model % Inhibition @ dose @ predose time): 39%
Fc1ccc(-c2n[nH]c([C@@H]3CCCN3)c2-c2ccncc2)cc1 [Example C-123, (S)-5-(2-PYROLIDINYL)-74-(4-PYRIDYL)-3-(4-FLUOROPHENYL)PYRAZOLE]	670	> 25		
Fc1ccc(-c2n[nH]c([C@H]3CCCN3)c2-c2ccncc2)cc1 [Example C-125, (R)-5-(2-PYROLIDINYL)-4-(4-PYRIDYL)-3-(4-FLUOROPHENYL)PYRAZOLE]	7220	> 25		
Fc1ccc(-c2n[nH]c([C@@H]3CCCNC3)c2-c2ccncc2)cc1 [Example C-127]	38	0.27		
OCCCCc1[nH]nc(-c2ccc(F)cc2)c1-c1ccncc1 [Example C-132, 5-[4-(1-HYDROXY)BUTYL]-4-(4-PYRIDYL)-3-(4-FLUOROPHENYL)PYRAZOLE]	86			inhibition at 5 µM (human TNF; [6]): 44%
O=C(CO)N1CCC(c2[nH]nc(-c3ccc(Cl)cc3)c2-c2ccncn2)CC1 [Example D-2, N-(2-Hydroxyacetyl)-5-(4-piperidyl)-4-(4-pyrimidyl)-3-(4-chlorophenyl)pyrazole hydrochloride]				IC50 (human TNF; TNF production, LPS-stimulated human whole blood, read-out: HWB IC50): 1.79 µM; ratLPS/% Inh @1.0 (mg/kg) (TNF-α; 1.0 mg/kg oral gavage, 4 hours before LPS challenge, hydrochloride): 89.0%; inhibition in vivo at 5 mg/kg (TNF-α; Rattus norvegicus, po, 5.0 mg/kg oral gavage, 4 hours before LPS challenge, read-out: ratLPS/% Inh @5.0 (mg/kg)): 95%
